{
  "source": "patent EP0292365A2",
  "about": "“4-Amino-5,8-quinazolindione derivatives, process for their preparation and pharmaceutical compositions containing them” (CENTRE NATIONAL DE LA RECHERCHE SCIENTIFIQUE, priority 1987, dated 1988)",
  "key": {"cellules MCF-7": {"tested_on": "cellules MCF-7", "assay": "Effect on cell cycle phases, MCF-7 line", "assay_type": "cell-based, humaine", "details": "summary of tableau D", "experimental": "Les cellules tumorales en croissance exponentielle sont ensemencées (10.000 cellules/ml) dans des boîtes à Petri contenant au fond de la boîte un couvre-objet (18 x 18 mm) et 3 ml de MEM (MEM = milieu essentiel minimum) + 5 % FCS (FCS = serum de veau fetal) (v/v). Après 24 heures d'incubation, quand les cellules sont bien attachées au fond de la boîte, le milieu est remplacé par MEM expérimental contenant 5 % FCS (v/v) et enrichi, par exemple de : • a) 3 ml du milieu (MEM + 5 % FCS) = témoins • b) 3 ml du milieu contenant une dose élevée du composé à tester : 10 µg/ml : (M) • c) milieu contenant une faible dose du composé à tester : 0.01 µg/ml (f) respectivement aux jours 1, 2, 3 et 4 après addition du milieu expérimental dans les boîtes de Petri. Trois couvre-objets sont fixés pour chaque condition expérimentale : éthanol 95° (75 v), formol neutre à 40 % (20 v), acide acétique (5 v), pendant 10 minutes. Les cellules témoins cultivées dans le milieu expérimental sans le produit à tester sont fixées au même moment. A la fin de la fixation, les couvre-objets sont retournés et montés sur des lames histologiques à l'aide de produit commercialisé sous la marque DPX par la Société British Drug House et conservés à l'abri de la lumière et à 4° en attendant d'être colorés.\nLes lames avec les couvre-objets sont colorées par une réaction de Feulgen modifiée. […]"}, "lignée HBL": {"tested_on": "lignée HBL", "assay": "Effect on cell cycle phases (cell kinetics parameters), HBL line", "assay_type": "cell-based, humaine", "details": "for G2±M / GO-G1 / S / G2+M / G1-GO: HBL", "experimental": "Les cellules tumorales en croissance exponentielle sont ensemencées (10.000 cellules/ml) dans des boîtes à Petri contenant au fond de la boîte un couvre-objet (18 x 18 mm) et 3 ml de MEM (MEM = milieu essentiel minimum) + 5 % FCS (FCS = serum de veau fetal) (v/v). […] Trois couvre-objets sont fixés pour chaque condition expérimentale : éthanol 95° (75 v), formol neutre à 40 % (20 v), acide acétique (5 v), pendant 10 minutes. Les cellules témoins cultivées dans le milieu expérimental sans le produit à tester sont fixées au même moment. A la fin de la fixation, les couvre-objets sont retournés et montés sur des lames histologiques à l'aide de produit commercialisé sous la marque DPX par la Société British Drug House et conservés à l'abri de la lumière et à 4° en attendant d'être colorés.\nLes lames avec les couvre-objets sont colorées par une réaction de Feulgen modifiée. Toutes les lames d'une condition expérimentale sont conditionnées par le réactif de Feulgen en même temps, pendant une heure, après hydrolyse dans un milieu HCI 6N pendant une heure à 20° C. Les préparations cellulaires sont ensuite conservées à l'abri de la lumière et à 4°C en attendant l'analyse.\nGrâce à un système d'analyse microscopique à balayage automatique, on détermine l'effet de la drogue sur la croissance cellulaire, au cours du temps, sur deux lignées cellulaires tumorales d'origine humaine : la lignée MCF-7 d'origine mammaire et la lignée HBL (mélanome malin).\nOn a représenté sur le tableau D BIS les résultats relatifs aux effets du composé 63 au cours du temps sur les différentes phases du cycle cellulaire (lignée HBL) où il est possible d'observer le nombre de cellules survivant à chaque phase du cycle cellulaire.\nDans les tableaux, GO-G1, S et G2 + M correspondent à des différentes phases de multiplication des cellules, telles qu'elles sont définies dans \"Cell proliferation kinetics of MCF-7 human mammary carcinome cells in culture and effects of tamoxifen on exponentially growing and plateau - phase cells\" R.L. Sutherland, R.E. Hall and I.W. Taylor, Cancer Research 43, pp. 3998 à 4006, 1983."}, "[1]": {"assay": "Solubility in water (statement)", "assay_type": "physicochemical"}},
  "data": [
    {"smiles": "CN(C)CCCNc1ncnc2c1C(=O)C(N1CC1)=C(N1CC1)C2=O", "note": "[composé 63]", "values": [
      {"measurement": "effet sur le cycle cellulaire (MCF-7)", "setting": "cellules MCF-7", "value": "bloque les cellules en phase S"},
      {"measurement": "G2±M", "setting": "lignée HBL; F (10µg/ml), 1 jour", "value": "14.0 ± 0.1", "unit": "ns"},
      {"measurement": "GO-G1", "setting": "lignée HBL; F (10µg/ml), 1 jour", "value": "62.7 ± 2.0", "unit": "ns"},
      {"measurement": "S", "setting": "lignée HBL; F (10µg/ml), 1 jour", "value": "23.3 ± 2.0", "unit": "ns"},
      {"measurement": "G2+M", "setting": "lignée HBL; F (10µg/ml), 2 jours", "value": "13.3 ± 2.2", "unit": "ns"},
      {"measurement": "GO-G1", "setting": "lignée HBL; F (10µg/ml), 2 jours", "value": "58.7 ± 0.9"},
      {"measurement": "S", "setting": "lignée HBL; F (10µg/ml), 2 jours", "value": "28.0 ± 2.1"},
      {"measurement": "G2+M", "setting": "lignée HBL; F (10µg/ml), 3 jours", "value": "12.3 ± 0.7", "unit": "ns"},
      {"measurement": "GO-G1", "setting": "lignée HBL; F (10µg/ml), 3 jours", "value": "59.7 ± 0.9"},
      {"measurement": "S", "setting": "lignée HBL; F (10µg/ml), 3 jours", "value": "28.0 ± 1.0"},
      {"measurement": "G1-GO", "setting": "lignée HBL; F (10µg/ml), 4 jours", "value": "59.0 ± 1.5", "unit": "ns"},
      {"measurement": "G2+M", "setting": "lignée HBL; F (10µg/ml), 4 jours", "value": "12.3 ± 1.9", "unit": "ns"},
      {"measurement": "S", "setting": "lignée HBL; F (10µg/ml), 4 jours", "value": "28.7 ± 0.7", "unit": "ns"},
      {"measurement": "G2±M", "setting": "lignée HBL; M (1µg/ml), 1 jour", "value": "12.7 ± 1.5", "unit": "ns"},
      {"measurement": "GO-G1", "setting": "lignée HBL; M (1µg/ml), 1 jour", "value": "62.3 ± 1.9", "unit": "ns"},
      {"measurement": "S", "setting": "lignée HBL; M (1µg/ml), 1 jour", "value": "25.0 ± 3.6", "unit": "ns"},
      {"measurement": "G2+M", "setting": "lignée HBL; M (1µg/ml), 2 jours", "value": "13.7 ± 1.2", "unit": "ns"},
      {"measurement": "GO-G1", "setting": "lignée HBL; M (1µg/ml), 2 jours", "value": "58.3 ± 1.3"},
      {"measurement": "S", "setting": "lignée HBL; M (1µg/ml), 2 jours", "value": "28.0 ± 1.0"},
      {"measurement": "G2+M", "setting": "lignée HBL; M (1µg/ml), 3 jours", "value": "15.3 ± 1.3", "unit": "ns"},
      {"measurement": "GO-G1", "setting": "lignée HBL; M (1µg/ml), 3 jours", "value": "56.7 ± 1.8"},
      {"measurement": "S", "setting": "lignée HBL; M (1µg/ml), 3 jours", "value": "28.0 ± 3.1"},
      {"measurement": "G1-GO", "setting": "lignée HBL; M (1µg/ml), 4 jours", "value": "58.0 ± 0.6", "unit": "ns"},
      {"measurement": "G2+M", "setting": "lignée HBL; M (1µg/ml), 4 jours", "value": "16.0 ± 2.1"},
      {"measurement": "S", "setting": "lignée HBL; M (1µg/ml), 4 jours", "value": "26.0 ± 1.7", "unit": "ns"},
      {"measurement": "G2±M", "setting": "lignée HBL; f (0.1µg/ml), 1 jour", "value": "12.7 ± 1.2", "unit": "ns"},
      {"measurement": "GO-G1", "setting": "lignée HBL; f (0.1µg/ml), 1 jour", "value": "56.0 ± 1.5"},
      {"measurement": "S", "setting": "lignée HBL; f (0.1µg/ml), 1 jour", "value": "31.3 ± 2.6"},
      {"measurement": "G2+M", "setting": "lignée HBL; f (0.1µg/ml), 2 jours", "value": "10.3 ± 2.2", "unit": "ns"},
      {"measurement": "GO-G1", "setting": "lignée HBL; f (0.1µg/ml), 2 jours", "value": "53.0 ± 1.5"},
      {"measurement": "S", "setting": "lignée HBL; f (0.1µg/ml), 2 jours", "value": "36.7 ± 3.7"},
      {"measurement": "G2+M", "setting": "lignée HBL; f (0.1µg/ml), 3 jours", "value": "11.0 ± 0.6", "unit": "ns"},
      {"measurement": "GO-G1", "setting": "lignée HBL; f (0.1µg/ml), 3 jours", "value": "53.7 ± 1.3"},
      {"measurement": "S", "setting": "lignée HBL; f (0.1µg/ml), 3 jours", "value": "35.3 ± 0.9"},
      {"measurement": "G1-GO", "setting": "lignée HBL; f (0.1µg/ml), 4 jours", "value": "53.3 ± 1.2"},
      {"measurement": "G2+M", "setting": "lignée HBL; f (0.1µg/ml), 4 jours", "value": "14.0 ± 2.3", "unit": "ns"},
      {"measurement": "S", "setting": "lignée HBL; f (0.1µg/ml), 4 jours", "value": "32.7 ± 3.5", "unit": "ns"},
      {"measurement": "effet sur le cycle cellulaire (HBL)", "setting": "lignée HBL; summary of tableau D BIS", "value": "bloque les cellules en phase S"},
      {"measurement": "solubilité dans l'eau", "setting": "[1]", "value": "hydrosoluble"}
    ]}
  ]
}
